Reference: BindingDB's records for patent US20240083872 (Shionogi, 2024)

Assays:
[1] = biological target: 5-hydroxytryptamine receptor 2A (Homo sapiens, UniProt P28223); assay: 5-HT2A Receptor Binding Inhibition Assay
Protocol: (§1) Binding Test of the Compound According to the Present Invention: In advance, 0.5 μL of the compound solution dissolved in DMSO was dispensed into a microplate, and the cell membrane and the hot ligand were diluted with Assay buffer, respectively. Then, the Assay buffer containing the diluted cell membrane was dispensed into a microplate at 50 μL/well. Then, the radioactive ligand solution was dispensed into a microplate at 50 μL/well, and the plate was sealed. Then, it was allowed to stand at room temperature (25° C.) for 1.5 hours. During this period, 50 mmol/L Tris-HCl (pH 7.4) was dispensed into a GF/B UniFilter plate at 50 μL/well and allowed to stand at 4° C. for 1 hour or longer. After that, filtration was performed with Cell harvester (PerkinElmer). […] The radioactivity of [3H]-Ketanserin bound to the 5-HT2A receptor was measured using Microbeta2 (PerkinElmer) at a measurement time of 1 min/well. The non-specific binding was calculated from the radioactivity of [3H]-Ketanserin in the presence of 500 μmol/L Serotonin HCl with the unlabeled ligand, and the total binding was calculated from the radioactivity of [3H]-Ketanserin in the absence of the compound according to the present invention (Vehicle). Finally, the Ki value was calculated from the dose-response curve.

[2] = biological target: T1, 5-hydroxytryptamine receptor 2C (Homo sapiens, UniProt P28335); assay: 5-HT2C Receptor Binding Inhibition Assay
T1 sequence (P28335 whole entry): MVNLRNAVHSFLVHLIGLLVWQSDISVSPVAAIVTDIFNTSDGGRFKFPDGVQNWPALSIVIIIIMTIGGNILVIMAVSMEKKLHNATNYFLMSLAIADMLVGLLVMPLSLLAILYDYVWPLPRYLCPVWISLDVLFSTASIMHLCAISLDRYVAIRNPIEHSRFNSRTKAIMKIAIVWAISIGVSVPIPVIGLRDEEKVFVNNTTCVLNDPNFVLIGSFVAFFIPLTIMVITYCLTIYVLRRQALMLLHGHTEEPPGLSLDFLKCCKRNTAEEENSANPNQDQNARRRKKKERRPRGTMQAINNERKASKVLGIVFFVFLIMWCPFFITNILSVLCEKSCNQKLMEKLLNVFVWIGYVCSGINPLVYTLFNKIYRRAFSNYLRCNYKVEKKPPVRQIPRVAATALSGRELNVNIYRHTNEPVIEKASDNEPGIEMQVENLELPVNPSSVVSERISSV
Protocol: as §1, with “Invention:In” for “Invention: In”, “37° C.” for “room temperature (25° C.)”, “2” for “1.5”, “(PerkinElmer). After the GF/B UniFilter plate was dried at room temperature, MicroScinti 20 was dispensed into the GF/B UniFilter plate at 50 μL/well, and the plate was sealed.” for “(PerkinElmer).”, “[3H]-Mesulergine” for “[3H]-Ketanserin”, “(Vehicle).” for “(Vehicle). Finally, the Ki value was calculated from the dose-response curve.”

Chain of 5-hydroxytryptamine receptor 2A (P28223 whole entry): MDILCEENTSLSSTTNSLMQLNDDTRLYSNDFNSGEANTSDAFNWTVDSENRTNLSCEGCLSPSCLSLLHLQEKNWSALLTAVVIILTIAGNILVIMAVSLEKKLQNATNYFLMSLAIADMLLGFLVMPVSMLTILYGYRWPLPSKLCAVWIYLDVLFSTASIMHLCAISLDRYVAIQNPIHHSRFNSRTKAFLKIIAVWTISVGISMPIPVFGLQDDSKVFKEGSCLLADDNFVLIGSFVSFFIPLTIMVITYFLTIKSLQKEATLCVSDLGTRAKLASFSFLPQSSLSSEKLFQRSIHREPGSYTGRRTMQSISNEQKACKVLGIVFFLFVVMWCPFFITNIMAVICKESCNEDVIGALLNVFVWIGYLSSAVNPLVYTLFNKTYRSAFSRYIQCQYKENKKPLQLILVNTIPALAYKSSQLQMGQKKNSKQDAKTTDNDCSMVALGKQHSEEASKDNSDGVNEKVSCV

CC(C)CNc1ccc(CN(Cc2ccn(C)n2)C(=O)NC2CCN(C)CC2)cc1 [US20240083872, Compound I-030]
Ki [1]: 2.17 nM | Ki [2]: 7.76 nM
